Laboratory results: patent US8815872B2, “Macrocyclics pyrimidines as aurora kinase inhibitors” (Merck Patent GmbH, priority 2008, dated 2014)

Tests used:
Type in all cases: biochemical
[1] = target: T1, Plk3(h) (Homo sapiens, UniProt Q9H4B4); experiment: Other kinases, single-concentration inhibition (Table 3); conditions: 1 μM
T1 construct: purchased Caliper Life Sciences
In short: (§1)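 Quench: 10 mM EDTA in 100 mM HEPES pH 7.5, 0.015% Brij-35, after 90 min at 25 °C. Before that, compound (single concentration) and kinase reacted with labelled peptide/ATP. Product/substrate peak ratio gave activity, expressed as % inhibition.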

[2] = target: T2, Yes(h) (Homo sapiens, UniProt P07947); experiment: as above; conditions: 1 μM
T2 construct: purchased Caliper Life Sciences
In short: as §1

[3] = target: T3, Lyn(h) (Homo sapiens, UniProt P07948); experiment: as above; conditions: 1 μM
T3 construct: purchased Caliper Life Sciences
In short: as §1

[4] = target: T4, PDGFRα(h) (Homo sapiens, UniProt P16234); experiment: as above; conditions: 1 μM
T4 construct: purchased Caliper Life Sciences
In short: as §1

[5] = target: T5, DDR2(h) (Homo sapiens, UniProt Q16832); experiment: as above; conditions: 1 μM
T5 construct: purchased Caliper Life Sciences
In short: as §1

[6] = target: T6, cSRC(h) (Homo sapiens, UniProt P12931); experiment: as above; conditions: 1 μM
T6 construct: purchased Caliper Life Sciences
In short: as §1

[7] = target: T7, c-RAF(h) (Homo sapiens, UniProt P04049); experiment: as above; conditions: 1 μM
T7 construct: purchased Caliper Life Sciences
In short: as §1

[8] = target: T8, FGFR1(h) (Homo sapiens, UniProt P11362); experiment: as above; conditions: 1 μM
T8 construct: purchased Caliper Life Sciences
In short: as §1

[9] = target: T9, SIK(h) (Homo sapiens, UniProt P57059); experiment: as above; conditions: 1 μM
T9 construct: purchased Caliper Life Sciences
In short: as §1

[10] = target: T10, CDK2/cyclinA(h) (Homo sapiens, UniProt P24941); experiment: as above; conditions: 1 μM
T10 construct: purchased Caliper Life Sciences
In short: as §1

[11] = target: T11, Plk1(h) (Homo sapiens, UniProt P53350); experiment: as above; conditions: 1 μM
T11 construct: purchased Caliper Life Sciences
In short: as §1

[12] = target: T12, CHK1(h) (Homo sapiens, UniProt O14757); experiment: as above; conditions: 1 μM
T12 construct: purchased Caliper Life Sciences
In short: as §1

[13] = target: T13, Flt4(h) (Homo sapiens, UniProt P35916); experiment: as above; conditions: 1 μM
T13 construct: purchased Caliper Life Sciences
In short: as §1

[14] = target: T14, p70S6K(h) (Homo sapiens, UniProt P23443); experiment: as above; conditions: 1 μM
T14 construct: purchased Caliper Life Sciences
In short: as §1

[15] = target: T15, CHK2(h) (Homo sapiens, UniProt O96017); experiment: as above; conditions: 1 μM
T15 construct: purchased Caliper Life Sciences
In short: as §1

[16] = target: T16, Fms(h) (Homo sapiens, UniProt P07333); experiment: as above; conditions: 1 μM
T16 construct: purchased Caliper Life Sciences
In short: as §1

[17] = target: T17, MAPKAP-K1-beta (Homo sapiens, UniProt P51812); experiment: Other kinases, inhibition at 1 μM (Table 3)
T17 construct: purchased Caliper Life Sciences
Method: (§2) The Aurora and other kinase assays described here were performed on two Caliper Life Sciences systems, the LC3000 and the Desktop Profiler. These provide data on enzyme activity via measurement of the relative amounts of phosphorylated or unphosphorylated fluorescently labelled substrate peptide at the end of an enzymatic reaction. These different states of peptide are resolved by applying a potential difference across the sample. The presence of a charged phosphate group on the product (as opposed to the substrate) causes a different peptide mobility between the two peptides. This is visualized by excitation of a fluorescent label on the substrate and product peptides and represented as peaks within the analysis software.
(§3) The Desktop Profiler utilizes the same principal as the LC 3000 for calculating percentage conversion of a substrate to product. Caliper Life Sciences provided proprietary flash frozen pre-made 384 well plates containing selected kinases. Each column in the 384 well plate contained a particular selected kinase. A second plate, the ‘substrate plate’ contained a mix of fluorescently labeled peptide substrate and ATP. These were arranged in columns so that transfer for substrate plate to enzyme plate provided the correct enzyme with the correct substrate/ATP concentration.
(§4) Compounds were added to a thawed enzyme plate in the desired format, in single concentrations. Reactions were initiated by transfer of the ubstrate/ATP mix from the substrate plate. The enzyme plate was incubated for 90 mins at 25 °C. The reaction was stopped by addition of […] of Stop Buffer (100 mM HEPES pH 7.5, 0.015% Brij-35, 10 mM EDTA (Sigma, E7889)).
(§5) Plates were read in a manner identical to that of the LC3000, and the ratio between substrate and product peaks provided the activity of the enzyme in that well. This was best represented by a plate heat map which colors each well by percent inhibition as compared to positive and negative controls (no inhibitors and no ATP respectively).

[18] = target: T18, Pim-1 (Homo sapiens, UniProt P11309); experiment: Other kinases, inhibition at 1 μM (Table 3)
T18 construct: purchased Caliper Life Sciences
Method: as §2, §3, §4, §5

[19] = target: T19, BRSK2 (Homo sapiens, UniProt Q8IWQ3); experiment: Other kinases, inhibition at 1 μM (Table 3)
T19 construct: purchased Caliper Life Sciences
Method: as §2, §3, §4, §5

[20] = target: T20, MNK-1 (Homo sapiens, UniProt Q9BUB5); experiment: Other kinases, inhibition at 1 μM (Table 3)
T20 construct: purchased Caliper Life Sciences
Method: as §2, §3, §4, §5

[21] = target: T21, IR (Homo sapiens, UniProt P06213); experiment: Other kinases, inhibition at 1 μM (Table 3)
T21 construct: purchased Caliper Life Sciences
Method: as §2, §3, §4, §5

[22] = target: T22, Nek2a (Homo sapiens, UniProt P51955); experiment: Other kinases, inhibition at 1 μM (Table 3)
T22 construct: purchased Caliper Life Sciences
Method: as §2, §3, §4, §5

[23] = target: T23, PDK1 (Homo sapiens, UniProt O15530); experiment: Other kinases, inhibition at 1 μM (Table 3)
T23 construct: purchased Caliper Life Sciences
Method: as §2, §3, §4, §5

[24] = target: T24, NEK6 (Homo sapiens, UniProt Q9HC98); experiment: Other kinases, inhibition at 1 μM (Table 3)
T24 construct: purchased Caliper Life Sciences
Method: as §2, §3, §4, §5

[25] = target: T25, Syk (Homo sapiens, UniProt P43405); experiment: Other kinases, inhibition at 1 μM (Table 3)
T25 construct: purchased Caliper Life Sciences
Method: as §2, §3, §4, §5

[26] = target: T26, BTK (Homo sapiens, UniProt Q06187); experiment: Other kinases, inhibition at 1 μM (Table 3)
T26 construct: purchased Caliper Life Sciences
Method: as §2, §3, §4, §5

[27] = target: T27, PKB-alpha (Homo sapiens, UniProt P31749); experiment: Other kinases, inhibition at 1 μM (Table 3)
T27 construct: purchased Caliper Life Sciences
Method: as §2, §3, §4, §5

[28] = target: T28, PRK2 (Homo sapiens, UniProt Q16513); experiment: Other kinases, inhibition at 1 μM (Table 3)
T28 construct: purchased Caliper Life Sciences
Method: as §2, §3, §4, §5

[29] = target: T29, PIM-2 (Homo sapiens, UniProt Q9P1W9); experiment: Other kinases, inhibition at 1 μM (Table 3)
T29 construct: purchased Caliper Life Sciences
Method: as §2, §3, §4, §5

[30] = target: T30, Pyk2(h) (Homo sapiens, UniProt Q14289); experiment: Inhibition of other kinases IC50 (Table 2)
T30 construct: purchased Caliper Life Sciences
Method: as §2

[31] = target: T31, FAK(h) (Homo sapiens, UniProt Q05397); experiment: Inhibition of other kinases IC50 (Table 2)
T31 construct: purchased Caliper Life Sciences
Method: as §2

[32] = target: T32, Abl(T315I)(h) (Homo sapiens, UniProt P00519, T315I); experiment: Inhibition of other kinases IC50 (Table 2)
T32 construct: purchased Caliper Life Sciences
Method: as §2

T29 sequence (Q9P1W9 whole entry, species assumed): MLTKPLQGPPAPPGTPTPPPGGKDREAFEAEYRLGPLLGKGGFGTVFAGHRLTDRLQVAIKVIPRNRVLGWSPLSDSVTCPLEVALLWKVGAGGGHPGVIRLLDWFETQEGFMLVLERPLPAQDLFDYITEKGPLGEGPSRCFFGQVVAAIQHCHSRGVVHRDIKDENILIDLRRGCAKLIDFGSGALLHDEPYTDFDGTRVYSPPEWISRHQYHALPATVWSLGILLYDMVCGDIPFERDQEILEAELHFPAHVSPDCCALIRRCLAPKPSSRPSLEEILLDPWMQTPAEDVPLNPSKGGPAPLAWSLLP
T22 sequence (P51955 whole entry, species assumed): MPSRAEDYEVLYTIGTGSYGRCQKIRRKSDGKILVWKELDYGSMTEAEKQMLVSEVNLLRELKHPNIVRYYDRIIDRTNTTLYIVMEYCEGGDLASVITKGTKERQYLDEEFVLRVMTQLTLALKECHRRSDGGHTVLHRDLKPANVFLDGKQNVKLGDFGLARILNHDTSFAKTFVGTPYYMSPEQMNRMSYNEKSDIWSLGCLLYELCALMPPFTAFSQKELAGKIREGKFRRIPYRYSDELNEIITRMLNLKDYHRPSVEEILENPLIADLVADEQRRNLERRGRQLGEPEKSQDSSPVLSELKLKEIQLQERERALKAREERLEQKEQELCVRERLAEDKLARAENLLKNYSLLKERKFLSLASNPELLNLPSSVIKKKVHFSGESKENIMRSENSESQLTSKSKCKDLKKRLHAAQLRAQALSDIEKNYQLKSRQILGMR
T26 sequence (Q06187 whole entry, species assumed): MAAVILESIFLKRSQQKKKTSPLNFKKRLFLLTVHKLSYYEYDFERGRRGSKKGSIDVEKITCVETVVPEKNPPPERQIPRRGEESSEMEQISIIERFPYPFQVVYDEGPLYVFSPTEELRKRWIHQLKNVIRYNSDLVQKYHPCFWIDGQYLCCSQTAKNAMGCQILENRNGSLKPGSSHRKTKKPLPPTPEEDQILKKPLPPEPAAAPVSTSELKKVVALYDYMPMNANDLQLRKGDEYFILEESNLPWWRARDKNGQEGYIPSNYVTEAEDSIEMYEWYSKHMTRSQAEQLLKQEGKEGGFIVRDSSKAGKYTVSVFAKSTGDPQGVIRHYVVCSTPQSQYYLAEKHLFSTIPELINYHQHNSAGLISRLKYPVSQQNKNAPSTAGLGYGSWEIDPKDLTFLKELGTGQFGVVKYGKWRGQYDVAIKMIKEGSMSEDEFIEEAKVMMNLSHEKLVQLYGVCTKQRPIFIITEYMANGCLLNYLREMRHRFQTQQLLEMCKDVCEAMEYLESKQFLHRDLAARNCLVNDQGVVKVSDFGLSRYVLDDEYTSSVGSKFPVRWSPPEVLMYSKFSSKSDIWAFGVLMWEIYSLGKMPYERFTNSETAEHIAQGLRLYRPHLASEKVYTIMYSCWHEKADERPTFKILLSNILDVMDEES
T27 sequence (P31749 whole entry, species assumed): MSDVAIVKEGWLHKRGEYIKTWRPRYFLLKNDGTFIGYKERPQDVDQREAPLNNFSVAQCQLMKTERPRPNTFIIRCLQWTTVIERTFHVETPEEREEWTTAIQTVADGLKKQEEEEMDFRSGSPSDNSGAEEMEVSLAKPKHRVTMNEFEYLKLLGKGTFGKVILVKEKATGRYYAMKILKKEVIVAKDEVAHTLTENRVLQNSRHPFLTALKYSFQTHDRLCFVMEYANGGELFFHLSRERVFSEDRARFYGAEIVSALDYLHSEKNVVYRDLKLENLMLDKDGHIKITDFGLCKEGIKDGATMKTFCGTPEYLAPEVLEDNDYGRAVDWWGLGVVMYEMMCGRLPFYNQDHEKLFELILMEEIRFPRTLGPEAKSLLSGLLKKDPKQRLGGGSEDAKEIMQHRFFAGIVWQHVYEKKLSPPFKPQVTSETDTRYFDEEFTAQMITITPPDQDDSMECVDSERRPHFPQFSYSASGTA
T17 sequence (P51812 whole entry): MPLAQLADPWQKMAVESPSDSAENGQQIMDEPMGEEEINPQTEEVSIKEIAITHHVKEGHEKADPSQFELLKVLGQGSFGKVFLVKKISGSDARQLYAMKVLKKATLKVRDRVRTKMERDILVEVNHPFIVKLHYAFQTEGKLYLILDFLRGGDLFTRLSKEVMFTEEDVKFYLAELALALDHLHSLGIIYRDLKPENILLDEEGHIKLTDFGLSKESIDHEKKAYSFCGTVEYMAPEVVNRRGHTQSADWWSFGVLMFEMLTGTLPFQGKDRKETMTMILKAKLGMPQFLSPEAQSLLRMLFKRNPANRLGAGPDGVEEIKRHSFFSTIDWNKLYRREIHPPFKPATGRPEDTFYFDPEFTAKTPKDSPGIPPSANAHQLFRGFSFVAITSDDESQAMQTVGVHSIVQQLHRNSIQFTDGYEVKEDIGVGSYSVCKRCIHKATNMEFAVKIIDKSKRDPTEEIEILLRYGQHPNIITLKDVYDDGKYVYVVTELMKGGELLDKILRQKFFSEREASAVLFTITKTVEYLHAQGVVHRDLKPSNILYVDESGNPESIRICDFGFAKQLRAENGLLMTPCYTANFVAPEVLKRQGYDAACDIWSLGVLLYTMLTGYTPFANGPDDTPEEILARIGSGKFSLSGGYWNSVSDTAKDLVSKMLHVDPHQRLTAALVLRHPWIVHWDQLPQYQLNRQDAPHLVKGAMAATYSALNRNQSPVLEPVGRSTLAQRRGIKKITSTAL
T18 sequence (P11309 whole entry, species assumed): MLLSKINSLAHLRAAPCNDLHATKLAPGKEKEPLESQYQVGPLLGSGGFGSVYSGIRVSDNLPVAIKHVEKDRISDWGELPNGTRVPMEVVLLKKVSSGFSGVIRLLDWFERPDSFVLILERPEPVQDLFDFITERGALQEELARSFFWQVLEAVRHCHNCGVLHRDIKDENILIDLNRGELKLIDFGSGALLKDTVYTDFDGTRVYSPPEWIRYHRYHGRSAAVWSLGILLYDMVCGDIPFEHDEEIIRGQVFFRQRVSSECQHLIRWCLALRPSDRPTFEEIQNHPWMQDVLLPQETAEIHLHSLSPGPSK
T23 sequence (O15530 whole entry): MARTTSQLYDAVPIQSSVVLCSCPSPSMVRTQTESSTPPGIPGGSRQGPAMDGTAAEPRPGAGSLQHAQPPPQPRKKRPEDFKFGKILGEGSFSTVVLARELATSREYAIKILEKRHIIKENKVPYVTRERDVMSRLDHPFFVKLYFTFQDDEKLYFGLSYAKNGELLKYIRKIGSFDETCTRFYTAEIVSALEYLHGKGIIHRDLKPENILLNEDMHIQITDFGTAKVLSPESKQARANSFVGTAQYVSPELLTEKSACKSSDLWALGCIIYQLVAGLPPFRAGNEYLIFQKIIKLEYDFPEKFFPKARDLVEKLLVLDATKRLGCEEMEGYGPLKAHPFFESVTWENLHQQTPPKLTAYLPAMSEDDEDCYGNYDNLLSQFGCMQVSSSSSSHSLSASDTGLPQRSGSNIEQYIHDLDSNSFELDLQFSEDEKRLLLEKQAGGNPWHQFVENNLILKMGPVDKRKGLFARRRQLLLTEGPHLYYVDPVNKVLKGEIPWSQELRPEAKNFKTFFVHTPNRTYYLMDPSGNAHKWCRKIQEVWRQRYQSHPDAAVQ
T28 sequence (Q16513 whole entry, species assumed): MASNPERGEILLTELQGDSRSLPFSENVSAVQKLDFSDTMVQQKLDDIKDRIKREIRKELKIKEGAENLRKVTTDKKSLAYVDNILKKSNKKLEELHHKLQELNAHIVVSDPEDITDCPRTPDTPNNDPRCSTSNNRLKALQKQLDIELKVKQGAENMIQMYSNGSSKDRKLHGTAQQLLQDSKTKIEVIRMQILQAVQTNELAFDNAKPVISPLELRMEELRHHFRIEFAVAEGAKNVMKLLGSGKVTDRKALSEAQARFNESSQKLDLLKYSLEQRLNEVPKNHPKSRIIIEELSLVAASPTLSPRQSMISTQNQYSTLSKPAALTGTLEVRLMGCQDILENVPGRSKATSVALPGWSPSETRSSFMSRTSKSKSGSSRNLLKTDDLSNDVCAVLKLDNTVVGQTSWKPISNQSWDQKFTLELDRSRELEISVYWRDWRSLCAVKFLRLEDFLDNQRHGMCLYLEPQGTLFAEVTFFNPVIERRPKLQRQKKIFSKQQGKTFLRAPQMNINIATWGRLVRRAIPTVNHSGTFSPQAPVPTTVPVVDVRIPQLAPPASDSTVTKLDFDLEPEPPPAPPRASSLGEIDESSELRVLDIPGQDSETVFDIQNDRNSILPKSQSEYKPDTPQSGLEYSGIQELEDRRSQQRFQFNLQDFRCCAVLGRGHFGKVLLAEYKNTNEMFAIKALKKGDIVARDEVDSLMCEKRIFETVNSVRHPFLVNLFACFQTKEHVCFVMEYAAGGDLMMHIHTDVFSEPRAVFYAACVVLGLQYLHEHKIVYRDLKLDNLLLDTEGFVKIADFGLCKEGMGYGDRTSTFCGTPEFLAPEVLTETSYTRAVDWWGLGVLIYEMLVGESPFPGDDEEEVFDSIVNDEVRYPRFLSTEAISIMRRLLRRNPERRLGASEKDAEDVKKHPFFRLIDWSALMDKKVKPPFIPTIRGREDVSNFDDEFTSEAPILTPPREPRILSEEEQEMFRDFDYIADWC
T20 sequence (Q9BUB5 whole entry, species assumed): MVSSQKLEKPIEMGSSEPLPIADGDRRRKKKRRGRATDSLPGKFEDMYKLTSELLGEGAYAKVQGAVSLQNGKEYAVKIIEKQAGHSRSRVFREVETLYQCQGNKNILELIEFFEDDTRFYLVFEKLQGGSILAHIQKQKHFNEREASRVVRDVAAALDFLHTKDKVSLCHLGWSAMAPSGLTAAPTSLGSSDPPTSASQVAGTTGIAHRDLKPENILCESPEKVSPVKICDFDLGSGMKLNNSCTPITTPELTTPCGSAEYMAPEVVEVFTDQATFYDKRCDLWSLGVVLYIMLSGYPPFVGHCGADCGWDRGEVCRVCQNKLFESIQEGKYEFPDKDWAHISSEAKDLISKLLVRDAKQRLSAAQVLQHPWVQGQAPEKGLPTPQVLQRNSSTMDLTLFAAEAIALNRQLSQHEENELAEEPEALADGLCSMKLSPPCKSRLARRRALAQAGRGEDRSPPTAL

Structure (SMILES)	% inhibition MAPKAP-K1-beta [17] [%]	% inhibition Pim-1 [18] [%]	inhibition at 1 µM [19] [%]	% inhibition MNK-1 [20] [%]	inhibition at 1 µM [21] [%]	% inhibition Nek2a [22] [%]	% inhibition PDK1 [23] [%]	inhibition at 1 µM [25] [%]	% inhibition BTK [26] [%]	% inhibition PKB-alpha [27] [%]	inhibition at 1 µM [28] [%]	% inhibition PIM-2 [29] [%]	also measured
CN1CCN(c2ccc3cc2OCCS[C@@H]2C[C@@H]4C[C@H]2[C@@H](Nc2nc(ncc2F)N3)[C@H]4C(N)=O)CC1 [Example 22]	–	–	–	–	–	–	–	–	–	–	–	–	% inhibition Plk3(h) [1]: 104%; % inhibition Yes(h) [2]: 2%; % inhibition Lyn(h) [3]: 12%; % inhibition PDGFRα(h) [4]: 87%; % inhibition DDR2(h) [5]: 96%; % inhibition cSRC(h) [6]: 16%; % inhibition c-RAF(h) [7]: 107%; % inhibition FGFR1(h) [8]: 5%; % inhibition SIK(h) [9]: 25%; % inhibition CDK2/cyclinA(h) [10]: 96%; % inhibition Plk1(h) [11]: 87%; % inhibition CHK1(h) [12]: 101%; % inhibition Flt4(h) [13]: 11%; % inhibition p70S6K(h) [14]: 83%; % inhibition CHK2(h) [15]: 64%; % inhibition Fms(h) [16]: 82%
NC(=O)[C@H]1[C@H]2C[C@H]3[C@H]1Nc1nc(ncc1F)Nc1cccc(c1)CSS[C@@H]3C2 [Example 10]	19	61	26	98	37	66	73	52	2	93	43	70	% inhibition NEK6 [24]: 93%
Fc1cnc2nc1NC1CCCC(C1)OC/C=C\COc1cccc(c1)N2 (single isomer, unassigned) [Example 33, (16Z)-6-fluoro-14,19-dioxa-2,4,8,26-tetraazatetracyclo[18.3.1.1˜3,7˜0.1˜9,13˜]hexacosa-1(24),3(26),4,6,16,20,22-heptaene]	68	65	81	95	67	82	91	84	37	85	97	85	–
NC(=O)[C@H]1[C@H]2C[C@H]3[C@H]1Nc1nc(ncc1F)Nc1cccc(c1)OCCS[C@@H]3C2 [Example 20]	–	–	–	–	–	–	–	–	–	–	–	–	IC50 [30]: 101 to 1000 nM; IC50 [31]: 101 to 1000 nM
NC(=O)[C@H]1[C@H]2C[C@H]3[C@H]1Nc1nc(ncc1F)Nc1cccc(c1)NC(=O)CS[C@@H]3C2 [Example 27]	–	–	–	–	–	–	–	–	–	–	–	–	IC50 [32]: 1 to 100 nM
